Patent US8124582B2, “Treatment of diabetes” (FibroGen, Inc., priority 2002, dated 2012)

How the values were obtained:
aldolase = assay: Aldolase protein expression in 293A cells (Western blot); assay type: cell-based, Human; details: FIG. 1A
Experimental: The effect of compounds of the present invention on expression of proteins and genes involved in glucose regulation and metabolism as follows. Human 293A cells (adenovirus-transformed fetal kidney epithelium) were plated confluent in 35 mm culture dishes and cultured for 1 day at 37° C., 10% CO2 in DMEM containing 5% FBS and 1% penicillin-streptomycin. The media was changed to Opti-Mem I and incubation was continued for an additional 18 to 24 hours. Vehicle control or compound B was then added to the media and cells were incubated for an additional 24, 48 or 72 hours. Plates were placed on ice, culture supernatant was removed, and lysis buffer-1 (LB-1: 10 mM Tris pH 7.4, 1 mM EDTA, 150 mM sodium chloride, 0.5% IGEPAL) was added. Cell lysates were harvested by scraping, incubated for 15 minutes on ice, and then fractionated by centrifugation at 3000×g for 5 minutes at 4° C. The supernatant, which represented the cytosolic fraction, was collected and cytosolic proteins were separated under reducing conditions using SDS-polyacrylamide gel electrophoresis (SDS-PAGE) with equal amounts of protein loaded per lane.
SDS-PAGE was conducted at 150 V for 2 hours, after which the proteins were transferred to a PVDF membrane at 400 mA for 1.5 hours at 4° C. […]

[1] = system: PFK-P, PFK-L, enolase-1, GluT-1, lactate dehydrogenase-1, aldolase-1, hexokinase-1; assay: In vivo expression of genes encoding enzymes involved in glucose regulation (microarray, time course); design: species or system Swiss Webster male mice; details: mice, 100 mg/kg oral gavage
Experimental: (§1) To determine gene induction patterns over time, twenty four Swiss Webster male mice (30-32 g) were obtained from Simonsen, Inc. and treated by oral gavage with a 4 ml/kg volume of either 0.5% carboxymethyl cellulose (CMC; Sigma-Aldrich, St. Louis Mo.) (0 mg/kg/day) or […] compound B (25 mg/ml in 0.5% CMC) (100 mg/kg). At 4, 8, 16, 24, 48, or 72 hours after the final dose, animals were anesthetized with isoflurane. The mice were then sacrificed and tissue samples of kidney, liver, brain, lung, and heart were isolated and stored in RNALATER solution (Ambion) at −80° C.
(§2) RNA from tissues obtained from the experiments described above was isolated using the following protocol. A 50 mg section of each organ was diced, 875 μl of RLT buffer (RNEASY kit; Qiagen Inc., Valencia Calif.) was added, and the pieces were homogenized for about 20 seconds using a rotor-stator POLYTRON homogenizer (Kinematica, Inc., Cincinnati Ohio). […] The RNA was eluted into 80 μL of water and quantitated with RIBOGREEN reagent (Molecular Probes, Eugene Oreg.). […] The absorbance at 260 and 280 nm was measured to determine RNA purity and concentration.
(§3) Alternatively, tissue samples were diced and homogenized in TRIZOL reagent (Invitrogen Life Technologies, Carlsbad Calif.) using a rotor-stator POLYTRON homogenizer (Kinematica). […] The absorbance at 260 and 280 nm was measured to determine RNA purity and concentration. […]

IGFBP-1 = assay: In vivo IGFBP-1 gene expression in kidney and liver (microarray); design: species or system Swiss Webster male mice; details: mice, oral gavage; time course; quantitatively different level between tissues; FIG. 3B
Experimental: as §1, §2, §3

O=C(O)CNC(=O)c1nc(Cl)c2ccccc2c1O [compound B, [(1-Chloro4-hydroxy-isoquinoline-3-carbonyl)-amino]-acetic acid]
aldolase expression (aldolase; 293A cells treated for 24, 48, and 72 hours, vs vehicle control): increased over time
β-tubulin expression (aldolase; 293A cells, specificity control): no increases
expression of genes encoding enzymes involved in glucose regulation ([1]; kidney, liver, lung, 4-72 hours after dose, FIGS. 2A-2C): increased in a coordinated fashion
time after which most mRNA levels returned to control levels ([1]; time course): 24 to 48 h
IGFBP-1 expression in kidney and liver (IGFBP-1): almost identical temporal induction
